System: isolated rat hearts subjected to low flow demand ischemia
Experiment: Isolated working rat heart, low flow demand ischemia: cardiac function and efficiency
Details: for Aortic Outflow / Cardiac Output / Coronary Flow / HR × PSP / Heart Rate / Peak Systolic Pressure: DCA 2 mM, diltiazem 0.8 μM, metoprolol 1 μM
Procedure: Hearts were trimmed of excess tissue, and the pulmonary artery and the opening to the left atrium were then cannulated. After 15 min of Langendorff perfusion, hearts were switched to the working mode by clamping the aortic inflow line from the Langendorff reservoir and opening the left atrial inflow line. The perfusate was delivered from an oxygenator into the left atrium at a constant preload pressure of 11 mm Hg. […] The afterload was set at a hydrostatic pressure of 80 mm Hg. […] Palmitate was bound to the albumin as described previously ([…]., et al. J Biol. Chem. 267:3825-3831 (1992)). […] For the aerobic model hearts, all tested compounds were introduced into the heart 5 minutes into the working mode following Langendorff Perfusion. Spontaneously beating hearts were used in all perfusions. Heart rate and aortic pressure were measured with a Biopac Systems Inc. blood pressure transducer connected to the aortic outflow line. Cardiac output and aortic flow were measured with Transonic […] ultrasonic flow probes in the preload and afterload lines, respectively. Coronary flow was calculated as the difference between cardiac output and aortic flow. […] Cardiac work was calculated as the product of systolic pressure and cardiac output. Cardiac efficiency was defined as a ratio of cardiac work to MVO2. […] All tested compounds were introduced into the perfusate five minutes into initiation of aerobic perfusion.

[1] = low flow ischemia: aerobic period
[2] = low flow ischemia: ischemic period

## COCCc1ccc(OCC(O)CNC(C)C)cc1 (stereo not drawn) [Metoprolol, metoprolol]
Low flow demand ischemia, FIG. 24, FIG. 30
  cardiac work, in words: no significant changes
Low flow demand ischemia, FIG. 25, FIG. 31
  oxygen consumption, in words: no significant changes
Low flow demand ischemia, Table 1
  peak systolic pressure, effect in words: no significant increase
Low flow demand ischemia, Table 1, compared to control
  heart rate, effect in words: no significant increase
Low flow demand ischemia, Table 2
  coronary flow (coronary outflow), effect in words: no significant increase
[1]
  Aortic Outflow: 25 ± 2 mL/min
  Cardiac Output: 47 ± 2 mL/min
  Coronary Flow: 22 ± 1 mL/min
  HR × PSP: 30 ± 2 beats · min^−1 · mmHg · 10^−2
  Heart Rate: 216 ± 10 beats · min^−1
  Peak Systolic Pressure: 141 ± 7 mmHg
[2]
  Aortic Outflow: 17 ± 3 mL/min
  Cardiac Output: 31 ± 4 mL/min
  Coronary Flow: 14 ± 1 mL/min
  HR × PSP: 30 ± 2 beats · min^−1 · mmHg · 10^−2
  Heart Rate: 216 ± 10 beats · min^−1
  Peak Systolic Pressure: 141 ± 7 mmHg
low-flow ischemic period, FIG. 23, FIG. 29
  cardiac function, in words: no significant changes

— patent US20120064056A1, “DICHLORACETATE IN COMBINATION WITH CLINICALLY HIGH LEVELS OF CARDIOPROTECTIVE OR HEMODYNAMIC DRUGS” (THE GOVERNORS OF THE UNIVERSITY OF ALBERTA TEC Edmonton, priority 2002, published 2012)
